Values after ≈ are worked out from the molar mass of the structure shown.
How the values were obtained:
[1] = Antiproliferative activity against human KARPAS299 cells incubated for 72 hrs by cell titer-glo assay; conditions: KARPAS-299, 72 h
Insulin receptor = Insulin receptor (Homo sapiens, UniProt P06213); experiment: Inhibition of IR (unknown origin) in presence of gamma33-ATP
[2] = target: ALK tyrosine kinase receptor (Homo sapiens, UniProt Q9UM73)
Description: Inhibition of recombinant ALK (unknown origin) in presence of gamma33-ATP

[3] = Solubility of compound at pH 7 buffer; assay type: physicochemical
[4] = Apparent permeability from apical to basolateral side in human Caco2 cells at 2.5 mg/ml after 2 hrs by reversed-phase HPLC method; assay type: ADME, cell-based; conditions: Caco-2
[5] = Apparent permeability from basolateral to apical side in human Caco2 cells at 2.5 mg/ml after 2 hrs by reversed-phase HPLC method; assay type: ADME, cell-based; conditions: Caco-2
[6] = Intrinsic clearance in human liver microsomes at […] preincubated for 5 mins followed by NADPH addition measured after 5 to 30 mins by LC-MS/MS analysis; assay type: ADME; conditions: read-out: CLH
[7] = Intrinsic clearance in rat hepatocytes at […] after 10 to 90 mins by LC-MS/MS analysis; assay type: ADME, cell-based, Hepatocyte; conditions: read-out: CLH
[8] = Cmax in Harlan nu/nu mouse at 10 mg/kg, iv administered as single dose by LC-MS/MS analysis; assay type: ADME, organism-based; parameters: dose 10 mg/kg, route intravenous; conditions: in vivo
[9] = AUC (infinity) in Harlan nu/nu mouse at 10 mg/kg, iv administered as single dose by LC-MS/MS analysis; assay type: ADME, organism-based; parameters: dose 10 mg/kg, time infinity, route intravenous; conditions: in vivo
[10] = Clearance in Harlan nu/nu mouse at 10 mg/kg, iv administered as single dose by LC-MS/MS analysis; assay type: ADME, organism-based; conditions: in vivo
[11] = Volume of distribution at steady state in Harlan nu/nu mouse at 10 mg/kg, iv administered as single dose by LC-MS/MS analysis; conditions: in vivo
[12] = Half life in Harlan nu/nu mouse at 10 mg/kg, iv administered as single dose by LC-MS/MS analysis; assay type: ADME, organism-based; conditions: in vivo
[13] = Cmax in Harlan nu/nu mouse at 10 mg/kg, po administered as single dose by LC-MS/MS analysis; assay type: ADME, organism-based; parameters: dose 10 mg/kg, route oral; conditions: in vivo
[14] = Tmax in Harlan nu/nu mouse at 10 mg/kg, po administered as single dose by LC-MS/MS analysis; assay type: ADME, organism-based; conditions: in vivo
[15] = AUC (infinity) in Harlan nu/nu mouse at 10 mg/kg, po administered as single dose by LC-MS/MS analysis; assay type: ADME, organism-based; parameters: dose 10 mg/kg, route oral, time infinity; conditions: in vivo
[16] = Half life in Harlan nu/nu mouse at 10 mg/kg, po administered as single dose by LC-MS/MS analysis; assay type: ADME, organism-based; conditions: in vivo
[17] = Oral bioavailability in Harlan nu/nu mouse at 10 mg/kg administered as single dose by LC-MS/MS analysis; assay type: ADME, organism-based; conditions: in vivo

Sequence of ALK tyrosine kinase receptor (Q9UM73 whole entry): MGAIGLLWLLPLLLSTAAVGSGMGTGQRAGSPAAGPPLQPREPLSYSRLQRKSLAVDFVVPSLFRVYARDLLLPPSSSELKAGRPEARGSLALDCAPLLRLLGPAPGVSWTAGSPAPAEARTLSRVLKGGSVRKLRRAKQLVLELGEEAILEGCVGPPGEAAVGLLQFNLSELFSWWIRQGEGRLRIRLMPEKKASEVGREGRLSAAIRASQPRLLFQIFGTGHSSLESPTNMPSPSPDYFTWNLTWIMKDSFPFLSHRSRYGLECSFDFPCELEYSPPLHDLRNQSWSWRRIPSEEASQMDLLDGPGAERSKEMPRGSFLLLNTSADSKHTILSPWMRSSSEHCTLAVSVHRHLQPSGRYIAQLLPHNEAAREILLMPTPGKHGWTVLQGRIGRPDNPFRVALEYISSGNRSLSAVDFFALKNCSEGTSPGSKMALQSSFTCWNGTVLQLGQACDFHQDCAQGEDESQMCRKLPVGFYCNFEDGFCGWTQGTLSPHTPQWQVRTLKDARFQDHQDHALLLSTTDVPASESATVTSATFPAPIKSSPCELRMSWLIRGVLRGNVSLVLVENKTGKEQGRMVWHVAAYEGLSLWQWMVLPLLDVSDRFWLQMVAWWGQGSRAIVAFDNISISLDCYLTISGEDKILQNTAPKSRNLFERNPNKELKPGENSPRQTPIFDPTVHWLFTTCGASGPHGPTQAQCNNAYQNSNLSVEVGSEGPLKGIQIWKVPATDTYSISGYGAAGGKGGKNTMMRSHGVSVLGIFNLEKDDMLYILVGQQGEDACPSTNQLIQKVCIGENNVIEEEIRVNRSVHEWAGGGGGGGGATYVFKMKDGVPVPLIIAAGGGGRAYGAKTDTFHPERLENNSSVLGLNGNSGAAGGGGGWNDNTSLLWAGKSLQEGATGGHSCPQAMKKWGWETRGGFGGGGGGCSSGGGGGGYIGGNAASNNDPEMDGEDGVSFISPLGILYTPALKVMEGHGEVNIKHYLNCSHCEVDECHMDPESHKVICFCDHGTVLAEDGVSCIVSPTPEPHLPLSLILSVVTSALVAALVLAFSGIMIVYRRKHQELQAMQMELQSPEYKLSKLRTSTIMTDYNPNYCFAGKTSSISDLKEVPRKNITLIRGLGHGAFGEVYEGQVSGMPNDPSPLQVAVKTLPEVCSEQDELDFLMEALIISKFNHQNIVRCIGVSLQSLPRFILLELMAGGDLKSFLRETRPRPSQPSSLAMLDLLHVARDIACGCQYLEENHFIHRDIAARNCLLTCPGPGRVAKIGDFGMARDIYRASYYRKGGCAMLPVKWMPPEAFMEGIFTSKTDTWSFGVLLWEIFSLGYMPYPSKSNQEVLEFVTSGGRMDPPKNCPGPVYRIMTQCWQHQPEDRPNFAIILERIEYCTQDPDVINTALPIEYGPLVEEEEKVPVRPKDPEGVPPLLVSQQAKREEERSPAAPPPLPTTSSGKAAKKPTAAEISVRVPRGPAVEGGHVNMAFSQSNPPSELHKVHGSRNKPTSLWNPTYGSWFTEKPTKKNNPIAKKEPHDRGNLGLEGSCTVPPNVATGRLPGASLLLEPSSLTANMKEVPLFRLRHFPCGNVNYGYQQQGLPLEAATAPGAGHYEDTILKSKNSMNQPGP
Sequence of Insulin receptor (P06213 28-758 limits assumed): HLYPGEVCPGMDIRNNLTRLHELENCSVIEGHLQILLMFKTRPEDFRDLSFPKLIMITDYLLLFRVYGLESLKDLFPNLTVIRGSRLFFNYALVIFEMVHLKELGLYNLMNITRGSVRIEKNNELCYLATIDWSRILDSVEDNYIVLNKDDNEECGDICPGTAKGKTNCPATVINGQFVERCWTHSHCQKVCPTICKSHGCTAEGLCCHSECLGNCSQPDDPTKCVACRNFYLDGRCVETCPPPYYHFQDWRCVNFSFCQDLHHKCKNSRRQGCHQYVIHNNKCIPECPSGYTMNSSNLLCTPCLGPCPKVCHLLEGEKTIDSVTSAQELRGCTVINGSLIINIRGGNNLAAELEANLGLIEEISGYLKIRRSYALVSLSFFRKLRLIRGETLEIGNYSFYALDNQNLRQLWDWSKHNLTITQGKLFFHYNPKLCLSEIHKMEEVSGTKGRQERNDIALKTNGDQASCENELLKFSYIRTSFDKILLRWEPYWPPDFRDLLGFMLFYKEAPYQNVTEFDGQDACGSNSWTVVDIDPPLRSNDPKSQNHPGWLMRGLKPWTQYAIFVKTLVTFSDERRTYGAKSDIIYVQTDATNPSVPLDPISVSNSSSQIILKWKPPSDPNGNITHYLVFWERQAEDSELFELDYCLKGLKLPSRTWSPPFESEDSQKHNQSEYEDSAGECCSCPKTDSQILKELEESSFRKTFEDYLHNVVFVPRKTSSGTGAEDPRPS
Sequence of Insulin receptor (P06213 763-1382 limits assumed): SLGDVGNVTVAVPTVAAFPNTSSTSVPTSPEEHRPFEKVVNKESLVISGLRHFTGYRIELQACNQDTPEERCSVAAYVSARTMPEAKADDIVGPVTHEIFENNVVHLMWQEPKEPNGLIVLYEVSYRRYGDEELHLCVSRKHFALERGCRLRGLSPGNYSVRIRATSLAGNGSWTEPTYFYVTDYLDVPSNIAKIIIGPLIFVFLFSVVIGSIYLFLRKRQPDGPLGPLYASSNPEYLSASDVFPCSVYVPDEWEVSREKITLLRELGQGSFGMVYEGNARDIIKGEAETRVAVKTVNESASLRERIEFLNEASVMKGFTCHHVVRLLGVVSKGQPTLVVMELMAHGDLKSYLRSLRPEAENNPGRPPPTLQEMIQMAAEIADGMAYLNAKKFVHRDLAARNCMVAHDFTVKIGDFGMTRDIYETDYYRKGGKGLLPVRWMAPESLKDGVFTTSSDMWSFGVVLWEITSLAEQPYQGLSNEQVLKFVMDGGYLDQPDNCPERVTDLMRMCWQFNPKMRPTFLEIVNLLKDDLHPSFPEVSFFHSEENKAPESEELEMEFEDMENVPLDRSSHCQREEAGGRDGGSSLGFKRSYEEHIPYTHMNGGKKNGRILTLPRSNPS

SMILES	IC50 (Insulin receptor) [nM]	IC50 [2] [nM]	solubility [3] [µM]	Papp A→B at 2 h, 2.5 mg/ml [4] [×10⁻⁶ cm/s]	Papp B→A at 2 h, 2.5 mg/ml [5] [×10⁻⁶ cm/s]	CLint scaled [6] [mL/min/kg]	CLint scaled [7] [mL/min/kg]	Cmax [8] [µM]	AUC(0-inf) [9] [µM·h]	clearance [10] [mL/min/kg]	Vd [11] [L/kg]	half-life [12] [h]	Cmax [13] [µM]	Tmax [14] [h]	AUC(0-inf) [15] [µM·h]	half-life [16] [h]	bioavailability [17] [%]	IC50 [1] [nM]
Cc1ccc(F)cc1Cc1ccc2[nH]nc(NC(=O)c3ccc(N4CCN(C)CC4)cc3NC3CCOCC3)c2c1	823	181	–	–	–	–	–	–	–	–	–	–	–	–	–	–	–	851
COCCNc1cc(N2CCN(C)CC2)ccc1C(=O)Nc1n[nH]c2ccc(Cc3cc(F)cc(F)c3)cc12	1760	210	–	–	–	–	–	–	–	–	–	–	–	–	–	–	–	243
CN1CCN(c2ccc(C(=O)Nc3n[nH]c4ccc(Cc5cc(F)cc(F)c5)cc34)c(NCCF)c2)CC1	462	14	16 (≈ 8.36 µg/mL)	2.4	1.5	24	18	7.58	24.7	11.7	4.76	5.92	1.88	4.33	31.5	9.86	99	49
CN1CCN(c2ccc(C(=O)Nc3n[nH]c4ccc(Cc5cc(F)ccc5F)cc34)c(NC3CCOCC3)c2)CC1	170	38	–	–	–	–	–	–	–	–	–	–	–	–	–	–	–	49
CN1CCN(c2ccc(C(=O)Nc3n[nH]c4ccc(Cc5cc(F)cc(F)c5)cc34)c(NCC3CN(C)C3)c2)CC1	353	67	–	–	–	–	–	–	–	–	–	–	–	–	–	–	–	386
COCCCNc1cc(N2CCN(C)CC2)ccc1C(=O)Nc1n[nH]c2ccc(Cc3cc(F)cc(F)c3)cc12	1190	135	–	–	–	–	–	–	–	–	–	–	–	–	–	–	–	194
CN1CCN(c2ccc(C(=O)Nc3n[nH]c4ccc(Cc5cc(F)cc(F)c5)cc34)c(Nc3ccccc3)c2)CC1	9870	684	–	–	–	–	–	–	–	–	–	–	–	–	–	–	–	991
CN1CCN(c2ccc(C(=O)Nc3n[nH]c4ccc(Cc5ccccc5)cc34)c(NC3CCOCC3)c2)CC1	1490	106	–	–	–	–	–	–	–	–	–	–	–	–	–	–	–	182
CN1CCN(c2ccc(C(=O)Nc3n[nH]c4ccc(Cc5cc(F)cc(F)c5)cc34)c(N)c2)CC1	1300	67	–	–	–	–	–	–	–	–	–	–	–	–	–	–	–	214
COC[C@@H](C)Nc1cc(N2CCN(C)CC2)ccc1C(=O)Nc1n[nH]c2ccc(Cc3cc(F)cc(F)c3)cc12	1070	72	–	–	–	–	–	–	–	–	–	–	–	–	–	–	–	74
COCC(COC)Nc1cc(N2CCN(C)CC2)ccc1C(=O)Nc1n[nH]c2ccc(Cc3cc(F)cc(F)c3)cc12	1640	99	–	–	–	–	–	–	–	–	–	–	–	–	–	–	–	340
CN1CCN(c2ccc(C(=O)Nc3n[nH]c4ccc(Cc5cc(F)cc(F)c5)cc34)cc2)CC1	1810	73	–	–	–	–	–	–	–	–	–	–	–	–	–	–	–	253
CN1CCN(c2ccc(C(=O)Nc3n[nH]c4ccc(Cc5cc(F)cc(F)c5)cc34)c(NCc3ccccc3)c2)CC1	3690	378	–	–	–	–	–	–	–	–	–	–	–	–	–	–	–	1260

Second part, led by results:

IC50 (Insulin receptor) [nM]	IC50 [2] [nM]	solubility [3] [µM]	Papp A→B at 2 h, 2.5 mg/ml [4] [×10⁻⁶ cm/s]	Papp B→A at 2 h, 2.5 mg/ml [5] [×10⁻⁶ cm/s]	CLint scaled [6] [mL/min/kg]	CLint scaled [7] [mL/min/kg]	Cmax [8] [µM]	AUC(0-inf) [9] [µM·h]	clearance [10] [mL/min/kg]	Vd [11] [L/kg]	half-life [12] [h]	Cmax [13] [µM]	Tmax [14] [h]	AUC(0-inf) [15] [µM·h]	half-life [16] [h]	bioavailability [17] [%]	SMILES	IC50 [1] [nM]
196	9	59 (≈ 34 µg/mL)	0.3	2	12	49	6.93	33.1	8.16	2.62	4.94	0.8	6	11	4.08	29.3	CN1CCC(Oc2ccc(C(=O)Nc3n[nH]c4ccc(Cc5cc(F)cc(F)c5)cc34)c(NC3CCOCC3)c2)CC1	43
707	98	–	–	–	–	–	–	–	–	–	–	–	–	–	–	–	CN1CCN(c2ccc(C(=O)Nc3n[nH]c4ccc(Cc5cc(F)cc(F)c5)cc34)c(N[C@H]3CC[C@@H](O)CC3)c2)CC1	162
3820	560	–	–	–	–	–	–	–	–	–	–	–	–	–	–	–	CN1CCN(c2ccc(C(=O)Nc3n[nH]c4ccc(Cc5cc(F)cc(F)c5)cc34)c(NC3CCCCC3)c2)CC1	609
189	19	–	–	–	–	–	–	–	–	–	–	–	–	–	–	–	C[C@@H](c1cc(F)cc(F)c1)c1ccc2[nH]nc(NC(=O)c3ccc(N4CCN(C)CC4)cc3NC3CCOCC3)c2c1	16
189	10	7 (≈ 4.02 µg/mL)	1.8	5.1	25	45	7.06	13.1	21.3	3.02	3.01	0.36	1	1.25	–	7.3	CN1CCN(c2ccc(C(=O)Nc3n[nH]c4ccc(Cc5cc(F)cc(F)c5)cc34)c(N[C@H]3CC[C@H](O)CC3)c2)CC1	68
41	3	103 (≈ 56.3 µg/mL)	0.6	4.5	7.5	52	40.5	42.2	7.01	1.4	4.76	0.081	6	1.33	9.63	2.9	O=C(Nc1n[nH]c2ccc(Cc3cc(F)cc(F)c3)cc12)c1ccc(N2CCNCC2)cc1NC1CCOCC1	13
1160	59	–	–	–	–	–	–	–	–	–	–	–	–	–	–	–	C[C@H](c1cc(F)cc(F)c1)c1ccc2[nH]nc(NC(=O)c3ccc(N4CCN(C)CC4)cc3NC3CCOCC3)c2c1	41
457	15	51 (≈ 30.1 µg/mL)	2.7	19.8	57	42	10.3	7.86	38.8	4.41	2.83	–	–	–	–	–	CN(C)CCN(C)C(=O)c1ccc(C(=O)Nc2n[nH]c3ccc(Cc4cc(F)cc(F)c4)cc23)c(NC2CCOCC2)c1	50
330	15	–	1.5	–	–	–	–	–	–	–	–	–	–	–	–	–	CN1CCC(Nc2cc(N3CCN(C)CC3)ccc2C(=O)Nc2n[nH]c3ccc(Cc4cc(F)cc(F)c4)cc23)CC1	438
653	18	84 (≈ 47 µg/mL)	1.1	1.9	40	229	5.69	7.97	32.1	2.63	1.52	0.36	0.83	1.51	2.25	18	O=C(Nc1n[nH]c2ccc(Cc3cc(F)cc(F)c3)cc12)c1ccc(CN2CCCCC2)cc1NC1CCOCC1	38
906	26	–	–	–	–	–	–	–	–	–	–	–	–	–	–	–	CN1CCN(c2ccc(C(=O)Nc3n[nH]c4ccc(Cc5cc(F)cc(F)c5)cc34)c(NCCO)c2)CC1	118
427	30	–	–	–	–	–	–	–	–	–	–	–	–	–	–	–	CN1CCN(c2ccc(C(=O)Nc3n[nH]c4ccc(Cc5cccc(F)c5)cc34)c(NC3CCOCC3)c2)CC1	18

Reference: ChEMBL document CHEMBL3804811 (J Med Chem, 2016)
